ChEMBL document CHEMBL6127132, “Design, Synthesis, and Biological Evaluation of Novel Diaminopyrimidine Macrocycles as Fourth Generation Reversible EGFR Inhibitors That Overcome Clinical Resistance to Osimertinib Mediated by C797S Mutation” (J Med Chem, 2024)

Tests used:
[1] = Toxicity in female BALB/c nu/nu mouse implanted with mouse BaF3 cells harboring 19del/T790M/C797S mutant assessed as mortality at 20 mg/kg, po administered once daily for 9 days; type: organism-based; settings: in vivo, 216 h, time 9 day
[2] = MRT (0 to t) in male SPF Sprague-Dawley rat at 10 mg/kg, po measured after 24 hrs by LC-MS/MS analysis; type: ADME, organism-based; settings: in vivo
[3] = tested on: BaF3; experiment: cells; settings: Mus musculus, BaF3, 72 h
[4] = Cmax in male SPF Sprague-Dawley rat at 10 mg/kg, po measured after 24 hrs by LC-MS/MS analysis; type: ADME, organism-based; settings: in vivo
[5] = biological target: Epidermal growth factor receptor (Mus musculus) (UniProt Q01279); experiment: Inhibition of EGFR downstream signaling in mouse BaF3 cells harboring EGFR 19del/T790M/C797S mutant assessed as reduction in phosphorylated ERK level preincubated for 2 hrs followed by EGF stimulation and measured after 15 mins by Western blot analysis; type: cell-based; settings: dose 1-1000 nM, time 135.0 min
[6] = tested on: BaF3; experiment: Antitumor activity against mouse BaF3 cells harboring 19del/T790M/C797S mutant implanted in female BALB/c nu/nu mouse assessed as tumor growth inhibition at 20 mg/kg, po administered once daily for 9 days relative to control; type: functional; settings: BaF3, 216 h, time 9 day, read-out: TGI
[7] = Induction of apoptosis in mouse BaF3 cells harboring EGFR 19del/T790M/C797S mutant assessed as early apoptotic cells at 30 nM incubated for 48 hrs by Annexin V-FITC/PI staining based flow cytometric analysis (reference value: 0.46 %); type: functional
[8] = Tmax in male SPF Sprague-Dawley rat at 2 mg/kg, iv measured after 24 hrs by LC-MS/MS analysis; type: ADME, organism-based; settings: in vivo
[9] = Toxicity in female BALB/c nu/nu mouse implanted with mouse BaF3 cells harboring 19del/T790M/C797S mutant assessed as body weight loss at 20 mg/kg, po administered once daily for 9 days; type: organism-based; settings: in vivo, 216 h, time 9 day
[10] = Induction of apoptosis in mouse BaF3 cells harboring EGFR 19del/T790M/C797S mutant assessed as late apoptotic cells at 1000 nM incubated for 48 hrs by Annexin V-FITC/PI staining based flow cytometric analysis (reference value: 2.29 %); type: functional
[11] = AUC (0 to t) in male SPF Sprague-Dawley rat at 2 mg/kg, iv measured after 24 hrs by LC-MS/MS analysis; type: ADME, organism-based; settings: in vivo
[12] = Induction of apoptosis in mouse BaF3 cells harboring EGFR 19del/T790M/C797S mutant assessed as late apoptotic cells at 30 nM incubated for 48 hrs by Annexin V-FITC/PI staining based flow cytometric analysis (reference value: 2.29 %); type: functional
[13] = biological target: Epidermal growth factor receptor (Mus musculus) (UniProt Q01279); experiment: Inhibition of EGFR downstream signaling in mouse BaF3 cells harboring EGFR L858R/T790M/C797S mutant assessed as reduction in phosphorylated ERK level preincubated for 2 hrs followed by EGF stimulation and measured after 15 mins by Western blot analysis; type: cell-based; settings: dose 1-1000 nM, time 135.0 min
[14] = Induction of apoptosis in mouse BaF3 cells harboring EGFR 19del/T790M/C797S mutant assessed as late apoptotic cells at 100 nM incubated for 48 hrs by Annexin V-FITC/PI staining based flow cytometric analysis (reference value: 2.29 %); type: functional
[15] = cells; settings: Homo sapiens, PC9-OR, 72 h
[16] = Induction of apoptosis in mouse BaF3 cells harboring EGFR 19del/T790M/C797S mutant assessed as early apoptotic cells at 300 nM incubated for 48 hrs by Annexin V-FITC/PI staining based flow cytometric analysis (reference value: 0.46 %); type: functional
[17] = MRT (0 to t) in male SPF Sprague-Dawley rat at 2 mg/kg, iv measured after 24 hrs by LC-MS/MS analysis; type: ADME, organism-based; settings: in vivo
[18] = Oral bioavailability in male SPF Sprague-Dawley rat at 10 mg/kg measured after 24 hrs by LC-MS/MS analysis; type: ADME, organism-based; settings: in vivo
[19] = tested on: BaF3; experiment: Induction of apoptosis in mouse BaF3 cells harboring EGFR 19del/T790M/C797S mutant assessed as caspase 3 cleavage incubated for 48 hrs by Western blot analysis; type: functional, cell-based; settings: dose 30-1000 nM
[20] = Induction of apoptosis in mouse BaF3 cells harboring EGFR 19del/T790M/C797S mutant assessed as late apoptotic cells at 300 nM incubated for 48 hrs by Annexin V-FITC/PI staining based flow cytometric analysis (reference value: 2.29 %); type: functional
[21] = Half-life in male SPF Sprague-Dawley rat at 2 mg/kg, iv measured after 24 hrs by LC-MS/MS analysis; type: ADME, organism-based; settings: in vivo
[22] = Induction of apoptosis in mouse BaF3 cells harboring EGFR 19del/T790M/C797S mutant assessed as early apoptotic cells at 1000 nM incubated for 48 hrs by Annexin V-FITC/PI staining based flow cytometric analysis (reference value: 0.46 %); type: functional
[23] = Cmax in male SPF Sprague-Dawley rat at 2 mg/kg, iv measured after 24 hrs by LC-MS/MS analysis; type: ADME, organism-based; settings: in vivo
[24] = AUC (0 to t) in male SPF Sprague-Dawley rat at 10 mg/kg, po measured after 24 hrs by LC-MS/MS analysis; type: ADME, organism-based; settings: in vivo
[25] = Clearance in male SPF Sprague-Dawley rat at 2 mg/kg, iv measured after 24 hrs by LC-MS/MS analysis; type: ADME, organism-based; settings: in vivo
[26] = AUC (0 to infinity) in male SPF Sprague-Dawley rat at 2 mg/kg, iv measured after 24 hrs by LC-MS/MS analysis; type: ADME, organism-based; settings: in vivo
[27] = tested on: BaF3; experiment: cells; settings: Mus musculus, BaF3, 72 h; remark: listed apart in the source
[28] = Half-life in male SPF Sprague-Dawley rat at 10 mg/kg, po measured after 24 hrs by LC-MS/MS analysis; type: ADME, organism-based; settings: in vivo
[29] = Tmax in male SPF Sprague-Dawley rat at 10 mg/kg, po measured after 24 hrs by LC-MS/MS analysis; type: ADME, organism-based; settings: in vivo
[30] = Induction of apoptosis in mouse BaF3 cells harboring EGFR 19del/T790M/C797S mutant assessed as early apoptotic cells at 100 nM incubated for 48 hrs by Annexin V-FITC/PI staining based flow cytometric analysis (reference value: 0.46 %); type: functional
[31] = AUC (0 to infinity) in male SPF Sprague-Dawley rat at 10 mg/kg, po measured after 24 hrs by LC-MS/MS analysis; type: ADME, organism-based; settings: in vivo
[32] = biological target: Epidermal growth factor receptor (Mus musculus) (UniProt Q01279); experiment: Inhibition of EGFR phosphorylation in mouse BaF3 cells harboring EGFR L858R/T790M/C797S mutant preincubated for 2 hrs followed by EGF stimulation and measured after 15 mins by Western blot analysis; type: cell-based; settings: dose 1-1000 nM, time 135.0 min
[33] = biological target: Epidermal growth factor receptor (Mus musculus) (UniProt Q01279); experiment: Inhibition of EGFR phosphorylation in mouse BaF3 cells harboring EGFR 19del/T790M/C797S mutant preincubated for 2 hrs followed by EGF stimulation and measured after 15 mins by Western blot analysis; type: cell-based; settings: dose 1-1000 nM, time 135.0 min
[34] = Antiproliferative activity against mouse BaF3 cells assessed as inhibition of cell proliferation incubated for 72 hrs by CCK-8 assay; type: toxicity, cell-based
[35] = tested on: A-431; experiment: cells; settings: Homo sapiens, A-431, 72 h
Description: Antiproliferative activity against human A-431 cells harboring wildtype EGFR assessed as inhibition of cell proliferation measured after 72 hrs by SRB assay

Chain of Epidermal growth factor receptor (Mus musculus) (Q01279 whole entry): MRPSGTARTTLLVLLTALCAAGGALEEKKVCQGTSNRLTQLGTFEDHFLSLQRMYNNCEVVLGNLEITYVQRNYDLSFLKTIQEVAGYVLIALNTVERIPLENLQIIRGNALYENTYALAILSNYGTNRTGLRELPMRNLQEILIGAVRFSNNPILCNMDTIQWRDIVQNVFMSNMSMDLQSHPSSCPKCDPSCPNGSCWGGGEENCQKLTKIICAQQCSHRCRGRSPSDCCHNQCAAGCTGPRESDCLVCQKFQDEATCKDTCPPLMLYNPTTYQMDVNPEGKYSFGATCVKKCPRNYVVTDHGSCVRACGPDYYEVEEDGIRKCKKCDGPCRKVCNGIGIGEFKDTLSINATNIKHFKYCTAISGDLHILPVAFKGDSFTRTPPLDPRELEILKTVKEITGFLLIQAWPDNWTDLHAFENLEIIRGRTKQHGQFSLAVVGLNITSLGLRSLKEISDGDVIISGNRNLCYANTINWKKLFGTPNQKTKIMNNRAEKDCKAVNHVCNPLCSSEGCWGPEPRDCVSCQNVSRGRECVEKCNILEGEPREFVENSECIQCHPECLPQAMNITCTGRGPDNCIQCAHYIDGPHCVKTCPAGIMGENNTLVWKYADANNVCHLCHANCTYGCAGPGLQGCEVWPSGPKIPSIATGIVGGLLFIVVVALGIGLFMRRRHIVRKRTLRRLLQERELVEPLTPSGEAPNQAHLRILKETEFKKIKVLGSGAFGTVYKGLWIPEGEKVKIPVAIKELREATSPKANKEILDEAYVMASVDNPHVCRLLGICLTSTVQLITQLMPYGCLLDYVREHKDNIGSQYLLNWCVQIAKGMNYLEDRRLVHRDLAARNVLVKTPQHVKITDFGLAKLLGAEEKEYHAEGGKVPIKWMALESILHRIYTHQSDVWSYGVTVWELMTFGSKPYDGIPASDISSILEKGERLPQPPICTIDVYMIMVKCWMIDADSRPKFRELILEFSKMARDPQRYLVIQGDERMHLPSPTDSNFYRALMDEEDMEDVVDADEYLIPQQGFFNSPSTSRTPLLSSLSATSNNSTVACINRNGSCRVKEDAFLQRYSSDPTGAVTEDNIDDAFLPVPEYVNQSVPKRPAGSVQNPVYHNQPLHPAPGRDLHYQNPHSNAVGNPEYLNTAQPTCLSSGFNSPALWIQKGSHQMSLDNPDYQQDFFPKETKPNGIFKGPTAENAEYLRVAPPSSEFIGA

For `COc1cc(N2CCOCC2)c2cc1Nc1ncc(C)c(n1)Nc1ccc(cc1P(C)(C)=O)OCCCn1cc-2cn1`, which Activity [1] is on record?
The Activity was “Non-Toxic”.

What about the MRT last at 24 h [2] of the same compound?
Its MRT last at 24 h is 5.86 h.

What about the IC50 [3] of the same compound?
The IC50 was 52 nM.

What about the Cmax [4] of the same compound?
Its Cmax is 1820 ng/mL.

What about the inhibition [5] of the same compound?
The inhibition was “Dose-Dependent Effect”.

And the inhibition in vivo at 20 mg/kg [6]?
The inhibition in vivo at 20 mg/kg was 65.4%.

And the Activity [7]?
Its Activity is 2.26%.

And the Tmax [8]?
Its Tmax is 4.98 min.

What about the Activity [9] of the same compound?
The Activity was “Non-Toxic”.

What about the Activity [10] of the same compound?
The Activity was 17.31%.

And the AUC(0-t) at 24 h [11]?
Its AUC(0-t) at 24 h is 7630 ng·h/mL.

And the Activity [12]?
The Activity was 1.64%.

What about the inhibition [13] of the same compound?
Its inhibition is “Dose-Dependent Effect”.

What about the Activity [14] of the same compound?
Its Activity is 3.44%.

What about the IC50 [15] of the same compound?
Its IC50 is 56 nM.

What about the Activity [16] of the same compound?
Its Activity is 34.23%.

And the MRT last at 24 h [17]?
Its MRT last at 24 h is 3.89 h.

And the bioavailability [18]?
The bioavailability was 47%.

And the Activity [19]?
Its Activity is “Dose-Dependent Effect”.

What about the Activity [20] of the same compound?
The Activity was 16.34%.

And the half-life [21]?
The half-life was 5.54 h.

What about the Activity [22] of the same compound?
The Activity was 71.63%.

What about the Cmax [23] of the same compound?
Its Cmax is 2150 ng/mL.

What about the AUC(0-t) at 24 h [24] of the same compound?
The AUC(0-t) at 24 h was 18000 ng·h/mL.

What about the clearance [25] of the same compound?
The clearance was 4.27 mL/min/kg.

And the AUC(0-inf) [26]?
Its AUC(0-inf) is 7900 ng·h/mL.

What about the IC50 [27] of the same compound?
The IC50 was 41 nM.

What about the half-life [28] of the same compound?
The half-life was 4.32 h.

And the Tmax [29]?
The Tmax was 1.67 h.

What about the Activity [30] of the same compound?
The Activity was 5.98%.

What about the AUC(0-inf) [31] of the same compound?
Its AUC(0-inf) is 18500 ng·h/mL.

What about the inhibition [32] of the same compound?
Its inhibition is “Dose-Dependent Effect”.

And the inhibition [33]?
The inhibition was “Dose-Dependent Effect”.

What about the IC50 at 72 h [34] of the same compound?
Its IC50 at 72 h is 2100 nM.

What about the IC50 [35] of the same compound?
Its IC50 is 246 nM.
